Results: patent US20060100188A1, “Treatment methods” (priority 2004, published 2006)

Legend:
[1] = system: DAOY human glioma cells (high MGMT level); experiment: Colony formation assay, DAOY cells; assay type: cell-based; conditions: 4-day cycle
Description: (§1) As detailed below, DAOY human glioma cells (high MGMT level), A375 human melanoma cells (high MGMT level), and LOX human melanoma cells (low MGMT level) in in vitro colony formation assays were treated with different dosing schedules of TMZ. In brief, sub-confluent plates containing cells (DAOY, A375, or LOX) were trypsinized, then rinsed and suspended in appropriate culture medium before seeding in 6-well plates. Cells were incubated for 18-24 hours at 37° C. to allow cells to attach. Graded concentrations of TMZ or equivalent volumes of diluents were added in triplicate. Each pulse of TMZ lasted for 24 hours. For example, cells receiving continuous daily dosing of TMZ were treated with TMZ-containing medium every 24 hours throughout the cycle. Following the last pulse of TMZ in a cycle, TMZ-containing medium was removed and replaced with fresh medium without TMZ for the rest of the incubation period. Resulting colonies were stained with Crystal Violet solution and quantified using ImagePro plus software (Empire Imaging Systems, Inc. Asbury, N.J.).

[2] = system: LOX human melanoma xenograft tumors; experiment: LOX human melanoma xenograft tumor model; assay type: in vivo, SCID mice; conditions: for % Inhibition compared to tumor treated with vehicle: 12-day cycle; for TGI: SCID mice, intermediate dose 72 mg/kg total
Description: (§2) In brief, female athymic nude mice or female SCID mice (4-6 week old) from Charles River Laboratories were maintained in a VAF-barrier facility. Animal procedures were performed in accordance with the rules set forth in the N.I.H. guide for the care and use of laboratory animals.
(§3) DAOY human glioma cells (5×10^6), LOX human melanoma cells (5×10^5), and A375 human melanoma cells (5×10^6) were inoculated subcutaneously in the right flank of the animal (LOX in SCID mice; DAOY and A375 in nude mice). To facilitate in vivo growth, Matrigel was mixed with DAOY and A375 cells (50%) before inoculation. When tumor volumes were approximately 100 mm^3, animals were randomized and grouped (n=10). Tumor volumes and body weight were measured twice weekly using Labcat™ computer application (Innovative Programing Associates, N.J.). Tumor volumes were calculated by the formula (W×L×H)×π×⅙.
(§4) TMZ was administered by intraperitoneal injections with 20% HPβCD (containing 1% DMSO) as vehicle. Mice bearing xenograft tumors of DAOY human glioma cells, a high MGMT level cell line, were treated with one of three different dosing schedules. In a 15-day cycle, under same total dose levels, mice received one of the following TMZ treatments: (i) day 1 through day 15; (ii) day 1 through day 5; or (iii) intermittently on day 1, 4, 7, 10, and 13. For all dosing schedules, three different dose levels (180, 270, and 405 mg/kg total) were used.
Mice bearing xenograft tumors of LOX human melanoma cells, a low MGMT level cell line, were treated with TMZ using two different schedules. The same total dose was administered evenly divided over the course of either: (i) 4 or (ii) 12 days. TMZ was administered through intraperitoneal injection using cumulative total dose levels of 36, 72 or 144 mg/kg.
The efficacy of TMZ was schedule dependent, with greater efficacy seen when dosing for 4 consecutive days.

[3] = system: DAOY human glioma xenograft tumors; experiment: DAOY human glioma xenograft tumor model; assay type: in vivo, nude mice; conditions: two 15-day cycles
Description: as §2, §3, §4
FIG. 5A illustrates the mean tumor growth curves of DAOY human glioma xenograft tumors following TMZ treatment for two consecutive 15-day cycles of continuous daily dosing (Day 1-15 (first cycle), Day 16-30 (second cycle)); where the total dose of TMZ administered was 0, 360, 540, or 810 mg per kg (mpk). FIG. 5B illustrates the mean tumor growth curves of DAOY human glioma xenograft tumors following TMZ treatment for two consecutive 15-day cycles of dosing for 5 consecutive days (Day 1-5 (first cycle); Day 16-20 (second cycle)); where the total dose of TMZ administered was 0, 360, 540, or 810 mpk. FIG. 5C illustrates mean tumor growth curves of DAOY human glioma xenograft tumors following TMZ treatment for two consecutive 15-day cycles of intermittent dosing for 5 days (Day 1, 4, 7, 10, 13 (first cycle); Day 16, 19, 22, 25, 28 (second cycle)); where the total dose of TMZ administered was 0, 360, 540, or 810 mpk.

[4] = system: A375 human melanoma cells (high MGMT level); experiment: Colony formation assay, A375 cells; assay type: cell-based; conditions: 4-day cycle
Description: as §1

[5] = system: LOX human melanoma cells (low MGMT level); experiment: Colony formation assay, LOX cells; assay type: cell-based
Description: as §1
In the 4-day cycle, illustrated in FIG. 3A, TMZ was administered according to one of two different dosing schedules: (i) continuous daily dosing (Day 1-4); or (ii) single pulse dosing (Day 1); where the total amount of TMZ administered was 0, 16, 31, 62, or 124 μg.
In the 8-day cycle, illustrated in FIG. 3B, TMZ was administered according to one of three different dosing schedules: (i) continuous daily dosing (Day 1-8); (ii) dosing for 2 consecutive days (Day 1-2); or (ii) intermittent dosing for 2 days (Day 1, Day 5); where the total amount of TMZ administered was 0, 31, 62, 124, or 248 μg.

[6] = system: A375 human melanoma xenograft tumors; experiment: A375 human melanoma xenograft tumor model; assay type: in vivo, nude mice; conditions: 15-day cycle
Description: as §2, §3, §4
Mice bearing xenograft tumors of A375 human melanoma cells, a high MGMT level cell line, were treated with three different dosing schedules. Similar to the schedules used for the DAOY model, in a 15-day cycle, under same total dose levels, mice received one of the following TMZ treatments: (i) day 1 through day 15; (ii) day 1 through day 5; or (iii) intermittently on day 1, 4, 7, 10, and 13. For all dosing schedules, three different dose levels (180, 270, and 405 mg/kg total) were used.

For `Cn1nnc2c(C(N)=O)ncn2c1=O` [TMZ, 3,4-dihydro-3-methyl-4-oxoimidazo[5,1-d]-as-tetrazine-8-carboxamide], the “% Inhibition compared to untreated cells” value ([1]; continuous daily dosing Day 1-4 (¼ total TMZ/day), total TMZ 93 μg) was −8%, the “% Inhibition compared to untreated cells” value ([1]; single pulse dosing Day 1, total TMZ 93 μg) was −37% and the “% Inhibition compared to untreated cells” value ([1]; single pulse dosing Day 1, total TMZ 186 μg) was 20%. The “% Inhibition compared to untreated cells” value ([1]; single pulse dosing Day 1, total TMZ 373 μg) was 75%, the “% Inhibition compared to tumor treated with vehicle” value (shortened to “% Inhibition … with vehicle”) ([2]; continuous daily dosing Day 1-12, 3 mpk per pulse, total 36 mpk, dose intensity 1, i.p.) was 37% and the “% Inhibition … with vehicle” value ([2]; dosing for 4 consecutive days Day 1-4, 18 mpk per pulse, total 72 mpk, dose intensity 2, i.p.) was 88%. The “% Inhibition … with vehicle” value ([2]; dosing for 4 consecutive days Day 1-4, 36 mpk per pulse, total 144 mpk, dose intensity 4, i.p.) was 94%, the TGI ([2]; 4-day treatment schedule) was 88% and the TGI ([2]; 12-day schedule) was 50%. For the same compound, the “% Inhibition … with vehicle” value ([3]; continuous dosing Day 1-30, 12 mpk per pulse, total 360 mpk, dose intensity 1, i.p.) was 66%, the “% Inhibition … with vehicle” value ([3]; dosing for 5 consecutive days Day 1-5, Day 16-20, 54 mpk per pulse, total 540 mpk, dose intensity 1.5, i.p.) was 118% and the “% Inhibition … with vehicle” value ([3]; dosing for 5 consecutive days Day 1-5, Day 16-20, 81 mpk per pulse, total 810 mpk, dose intensity 2.25, i.p.) was 124%. The “% Inhibition … with vehicle” value ([3]; intermittent dosing Day 1, 4, 7, 10, 13, 16, 19, 22, 25, 28, 54 mpk per pulse, total 540 mpk, dose intensity 1.5, i.p.) was 85%, the “% Inhibition … with vehicle” value ([3]; intermittent dosing Day 1, 4, 7, 10, 13, 16, 19, 22, 25, 28, 81 mpk per pulse, total 810 mpk, dose intensity 2.25, i.p.) was 117% and the “% Inhibition compared to untreated cells” value ([4]; continuous daily dosing Day 1-4 (¼ total TMZ/day), total TMZ 62 μg) was 17.4%. The “% Inhibition compared to untreated cells” value ([4]; single pulse dosing Day 1, total TMZ 62 μg) was 76%, the “% Inhibition compared to untreated cells” value ([4]; single pulse dosing Day 1, total TMZ 124 μg) was 88% and the “% Inhibition compared to untreated cells” value ([4]; single pulse dosing Day 1, total TMZ 249 μg) was 96%. For the same compound, the “% Inhibition compared to untreated cells” value ([5]; 4-day cycle, continuous daily dosing Day 1-4 (¼ total TMZ/day), total TMZ 16 μg) was 7%, the “% Inhibition compared to untreated cells” value ([5]; 4-day cycle, single pulse dosing Day 1, total TMZ 16 μg) was 66% and the “% Inhibition compared to untreated cells” value ([5]; 4-day cycle, single pulse dosing Day 1, total TMZ 31 μg) was 87%. For the same compound, the “% Inhibition compared to untreated cells” value ([5]; 4-day cycle, single pulse dosing Day 1, total TMZ 62 μg) was 84%, the “% Inhibition compared to untreated cells” value ([5]; 8-day cycle, continuous daily dosing Day 1-8 (⅛ total TMZ/day), total TMZ 31 μg) was −5% and the “% Inhibition compared to untreated cells” value ([5]; 8-day cycle, dosing for 2 consecutive days Day 1, Day 2 (½ total TMZ/day), total TMZ 31 μg) was 45%. For the same compound, the “% Inhibition compared to untreated cells” value ([5]; 8-day cycle, dosing for 2 consecutive days Day 1, Day 2 (½ total TMZ/day), total TMZ 62 μg) was 92%, the “% Inhibition compared to untreated cells” value ([5]; 8-day cycle, dosing for 2 consecutive days Day 1, Day 2 (½ total TMZ/day), total TMZ 124 μg) was 98% and the “% Inhibition compared to untreated cells” value ([5]; 8-day cycle, intermittent dosing for 2 days Day 1, Day 5 (½ total TMZ/day), total TMZ 31 μg) was 78%. For the same compound, the “% Inhibition compared to untreated cells” value ([5]; 8-day cycle, intermittent dosing for 2 days Day 1, Day 5 (½ total TMZ/day), total TMZ 62 μg) was 98%, the “% Inhibition compared to untreated cells” value ([5]; 8-day cycle, intermittent dosing for 2 days Day 1, Day 5 (½ total TMZ/day), total TMZ 124 μg) was 99% and the “% Inhibition … with vehicle” value ([6]; continuous daily dosing Day 1-15, 12 mpk per pulse, total 180 mpk, dose intensity 1, i.p.) was 34%. The “% Inhibition … with vehicle” value ([6]; dosing for 5 consecutive days Day 1-5, 54 mpk per pulse, total 270 mpk, dose intensity 1.5, i.p.) was 29%, the “% Inhibition … with vehicle” value ([6]; dosing for 5 consecutive days Day 1-5, 81 mpk per pulse, total 405 mpk, dose intensity 2.25, i.p.) was 68% and the “% Inhibition … with vehicle” value ([6]; intermittent dosing Day 1, 4, 7, 10, 13, 54 mpk per pulse, total 270 mpk, dose intensity 1.5, i.p.) was 58%. The “% Inhibition … with vehicle” value ([6]; intermittent dosing Day 1, 4, 7, 10, 13, 81 mpk per pulse, total 405 mpk, dose intensity 2.25, i.p.) was 73%.
